Results taken from patent US11931335B2, “Enhancing autophagy or increasing longevity by administration of urolithins or precursors thereof” (Amazentis SA, priority 2012, dated 2024).

Columns and labels:
[1] = system: sir-2.1(ok434) mutant C. elegans; assay: Lifespan assay, sir-2.1 mutant C. elegans; format: in vivo
Method: (§1) Lifespan assays were performed with (A) wild-type (N2), (B) sir-2.1(ok434) mutant, (C) aak-2(ok524), (D) daf-16(mu86), (E) eat-2(ad465) and (F) daf-2(e1370) mutant strains of C. elegans maintained during their full life on plates supplemented with either 50 μM of urolithin A or with a control treatment and seeded with OP50 bacteria. Control plates without urolithin A contained an equivalent concentration of DMSO. Worm lifespan assays were performed at 20° C.
sir-2.1: sir-2.1 encodes the mammalian homolog of the NAD-dependent deacetylase SIRT1 in C. elegans. SIR-2.1/SIRT1 activity is mediated by NAD^+ level and is well described to be involved in longevity regulation in yeast, C. elegans, and Drosophila in response to caloric restriction.

[2] = system: primary mouse hepatocytes; assay: Autophagy western blot in primary hepatocytes; format: cell-based; conditions: 16 hour
Method: Isolated primary hepatocytes were cultured in Medium 199 including 4.5 g/L glucose, 10% fetal calf serum, 0.1 mM NEAA, 10 mM HEPES and 50 μg/mL gentamicin. These cells were then treated with either 10 μM, 20 μM or 50 μM of urolithin A for a 16 hour period, after which cells were lysed and prepared for Western Blot analysis.
Protein expression levels were examined for autophagy related proteins LC3-I and II (Cell Signaling antibody #4108), p62 (Cell Signalling antibody #5114), AMPKα (Cell Signaling antibody #2603), and p-AMPKα(Cell Signaling antibody #2531). The housekeeping protein, HSP90 (BD Transduction Laboratories antibody #610418) level was measured as a loading control.

[3] = system: C. elegans wild-type Bristol N2; assay: Oxygen consumption (Seahorse XF24) in aged C. elegans; format: in vivo
Method: C. elegans strains were cultured at 20° C. on nematode growth media (NGM) agar plates seeded with E. coli strain OP50. Strain used was wild-type Bristol N2 provided by the Caenorhabditis Genetics Center (University of Minnesota). Urolithin A was dissolved in DMSO. Animals were exposed to compounds from eggs on plates seeded with live OP50 bacteria. Control plates were prepared with the corresponding concentration of DMSO (0.1%).
The effect of urolithin A on mitochondrial activity in aged C. elegans (10 days old) was assessed by treating C. elegans with urolithin A for 10 days of adulthood, at which time oxygen consumption was measured using the Seahorse XF24 equipment (Seahorse Bioscience Inc., North Billerica, MA). […] Worms were transferred into 24-well standard Seahorse plates (#100777-004) (50 worms per well) and oxygen consumption was measured. The basal oxygen consumption of the worms was first measured over 30 minutes at 5-minute intervals (0 min, 5 min, 15 min, 20 min, 25 min, and 30 min) with 5 replicates per interval. Respiration rates were normalized to the exact number of worms per well determined after the completion of the experiment using a stereomicroscope. […] Uncoupled oxygen consumption was measured at 5-minute intervals (35 min, 40 min, 45 min, 50 min, 55 min, and 60 min) to permit measuring the mitochondrial function over time.

[4] = system: daf-2(e1370) mutant C. elegans; format: in vivo
Method: as §1
daf-2 encodes for the insulin-like growth factor 1 (IGF-1) receptor in C. elegans.

[5] = system: C. elegans strain DA2122 (LGG-1::GFP); assay: Autophagy induction, LGG-1::GFP dots in C. elegans; format: in vivo; conditions: 50 μM from eggs to second day of adulthood; FIGS. 9A-9B
Method: C. elegans strains were cultured at 20° C. on nematode growth media (NGM) agar plates seeded with OP50 bacteria and containing 50 μM urolithin A or a corresponding concentration of DMSO as a control. The worms were treated from eggs to the second day of the adulthood. The strains used were the DA2122 (adIs2122[lgg-1::GFP+rol-6(su1006)]), which is a transgenic line expressing the LGG-1 protein (homolog of LC3 in human) fused with the green fluorescent protein (GFP). For picture acquisition, worms were immobilized with tetramisole (Sigma) and mounted on 6% agarose pads on glass slides. Images were acquired using Zeiss LSM 700 upright confocal microscope (Carl Zeiss A G, Oberkochen, Germany) from the same part of C. elegans. For each condition multiple worms were observed and imaged with the same initial parameters. Image processing and quantification of autophagic events was performed with the Fiji software.

ModeK cells = assay: Autophagy western blot in ModeK cells; format: cell-based, mouse; conditions: 10 μM, 20 μM and 50 NM, eight hours
Method: The ability of urolithins to induce autophagy in mammalian cells was also examined. ModeK cells derived from intestine, were cultured in RPMI 1640 medium including 4.5 g/L glucose, 10% fetal calf serum, 1 mM Sodium Pyruvate, 10 mM HEPES, 0.1 mM NEAA, 2-Mercaptoethanol Penicillin 100 UI/mL and Streptomycin 100 μg/mL. Cells were cultured at 37° C. under a 5% CO2 atmosphere. Cells were treated with increasing concentrations of urolithin A (10 μM, 20 μM and […]). Treatment was performed for eight hours, after which cells were lysed and prepared for Western Blot analysis. Protein expression levels were examined for autophagy related proteins LC3-I and II (Cell Signaling antibody #4108), p62 (Cell Signalling antibody #5114), AMPKα (Cell Signaling antibody #2603), and p-AMPKα(Cell Signaling antibody #2531). The housekeeping protein, HSP90 (BD Transduction Laboratories antibody #610418) level was measured as a loading control.

aged C57BL/6J mice [6] = assay: Locomotor activity by infrared detection in aged mice; format: in vivo, mouse; conditions: 50 mg/kg/day, 34 weeks, 12 hour dark period, FIG. 23
Method: Locomotor activity may be also assessed by measuring animal movements using infrared detection. To determine the effects of urolithin A on spontaneous locomotor activity in aged animals, 16-month-old C57BL/6J mice were treated with either a standard rodent diet or a diet containing urolithin A mixed with food to reach a dosing of 50 mg/kg/day delivered to mice. Following 34 weeks of treatment with urolithin A, mice were placed in a locomotor activity monitoring system, TSE Systems. Infrared transmitters and receivers are placed in the x, y, and z axis. Interruption of the infrared beams in the x, y axis by the passage of the mouse, allows for a measurement of the horizontal movement (ambulation). Interruption of the infrared beams in the z axis by the mouse, allows for the measurement of rearing behavior. Each beam interruption results in one count being recorded. Total counts were measured for each 30 minute period over a two day period. The total counts observed during the 12 hour dark period, which corresponds to the time of highest activity in mice, were summed for each animal.

C. elegans = assay: Pharyngeal pumping in C. elegans; format: in vivo; conditions: day 14 (aged worms); 50 μM; FIG. 11
Method: To examine the effect of urolithins on muscle function, pharyngeal pumping was examined in C. elegans worms at day 7 and day 14. Worms were observed using a Nikon SMZ1500 stereomicroscope (Nikon, Melville, NY, USA). Ten L4 worms were transferred on plates containing NGM medium with vehicle (DMSO 0.1%, final concentration) or the compound of interest (urolithin A (UA), urolithin B (UB), urolithin C (UC), urolithin D (UD)) dissolved in DMSO (final concentration 50 μM) and seeded with E. coli RNAi clones as indicated. After 3 days (corresponding to day 0), newly developed 60 to 100 L4 worms were used per condition, scored and transferred to fresh plates every 3 days starting from day 1 (young adult worms). Experiments were performed at 20° C.
The pharyngeal pumping rates at day 7 and 14 were measured for 10 worms by transferring single worms to an unseeded plate and scoring for pharyngeal pumping under a dissecting microscope for 30 seconds. The pharyngeal pumping rates were then computed by extrapolating the pumping made by worms during this 30 second period.

aged C57BL/6J mice [7] = assay: Running wheel activity in aged high fat diet mice; format: in vivo, mouse; conditions: 50 mg/kg/day, 30 weeks, dark phase of day 2, FIG. 21
Method: To examine the effects of urolithin A treatment on motor activity in aged mammals 17-month-old C57BL/6J mice were treated with either a high fat rodent diet or a high fat rodent diet containing urolithin A mixed with food to reach a dosing of 50 mg/kg/day delivered to the mice.
Following 30 weeks of treatment with urolithin A, mice were housed individually and a 23 cm diameter running wheel was placed in the cage of each mouse. Spontaneous exercise activity was measured continuously over a two day period allowing the capture of the circadian rhythm of the exercise activity. Afterwards, mice were returned to their home cages.
Mice became habituated to the presence of the activity wheel on day 1. To measure the effect of urolithin A treatment on activity as well as muscle function, the cumulative distance that animals covered during the peak running period (dark phase) of day 2 was measured.

Compound: O=c1oc2cc(O)ccc2c2ccc(O)cc12 [Urolithin A, urolithin A]
- Median lifespan ([1]; sir-2.1(ok434), 50 μM UA): 23 days
- Lifespan extension compared to control (%) ([1]; sir-2.1(ok434), 50 μM UA vs 1% DMSO): +9.5%
- activity of urolithin A on the extension of median lifespan ([1]; sir-2.1 mutant): completely suppressed
- P62 protein levels ([2]; 10 μM, 20 μM or 50 μM): decrease
- ratio of LC3-II to LC3-I ([2]; 10 μM, 20 μM or 50 μM, FIG. 15): dose-dependent effect and increase
- ratio of p-AMPKα/AMPK-u vs control cells ([2]; 20 and […]): above 10 fold
- basal respiration, 10-day-old vs 1-day-old worms ([3]; 30 μM, FIG. 8D): normalizes the respiration rates
- uncoupled (FCCP) respiration, area under the curve ([3]; 10-day-old worms, 30 μM urolithin A, 30-minute period, FIGS. 8A-8B): significantly increased uncoupled respiration
- Median lifespan ([4]; daf-2, 50 μM UA): 48 days
- Lifespan extension compared to control (%) ([4]; daf-2, 50 μM UA vs 1% DMSO): +14.2%
- activity of urolithin A on the extension of median lifespan ([4]; daf-2 mutant): completely suppressed
- number of autophagic events (LGG-1::GFP dots per focal field) [5]: increases the number of autophagic events
- levels of p62 (ModeK cells): decreased
- ratio of LC3-II/LC3-I vs vehicle-treated cells (ModeK cells; FIG. 14): ≤ 10 fold
- increase in ambulation (aged C57BL/6J mice [6]): 14%
- increase in rearing (aged C57BL/6J mice [6]): 25%
- pharyngeal pumping (muscle function) (C. elegans): decreases the age related decline in muscle activity
- increase in cumulative distance run (aged C57BL/6J mice [7]): 57%
